Source: patent publication US20080069809A1, “Compositions and methods for the diagnosis and treatment of cancer” (priority 2006, published 2008)

What was measured:
NB4 = test: Differentiation (CD11b expression) in NB4 cells; assay type: cell-based; details: treated 5 days
Procedure: (§1) The myeloid leukemic cell lines HL60, NB60, NB4, U937, K562 and KG1a were all grown in RPMI 1640 medium (Life Technologies, Paisley, United Kingdom) supplemented with 10% v/v fetal calf serum (Sear Laboratories International Crawley, United Kingdom), 100 U/mL penicillin, and 100 μg/mL streptomycin (Sigma Aldrich, Poole, United Kingdom) at 37° C. and 5% v/v CO2. AML blasts were isolated from patient bone marrow aspirates and peripheral blood of eight patients at diagnosis or relapse. Patients were not receiving AML therapy at time of sampling. […] Blast purity ranged from 80% to 95%, as assessed by expression of CD34. […]
(§2) Cell differentiation was determined by staining of cells with anti-CD11b antibody as a general early marker of myeloid differentiation. In studies with HL60 cells, PEP005-treated and 20 nM phorbol myristate (PMA)-treated (Sigma Aldrich) cells were also assessed for their ability to phagocytose complement-coated yeast, a marker of a fully differentiated myeloid cell, as previously described (Toksoz et al, Leukemia Res 6:491-498, 1982). […] Images were captured with a SPOT2 cameria (Diagnostic Instructions, Sterling Heights, Mich.) and analyzed using Image-Pro 4.0 software (Media Cybernetics, Silver Spring, Md.).

U937 = test: Differentiation (CD11b expression) in U937 cells; assay type: cell-based
Procedure: (§3) The myeloid leukemic cell lines HL60, NB60, NB4, U937, K562 and KG1a were all grown in RPMI 1640 medium (Life Technologies, Paisley, United Kingdom) supplemented with 10% v/v fetal calf serum (Sear Laboratories International Crawley, United Kingdom), 100 U/mL penicillin, and 100 μg/mL streptomycin (Sigma Aldrich, Poole, United Kingdom) at 37° C. and 5% v/v CO2. AML blasts were isolated from patient bone marrow aspirates and peripheral blood of eight patients at diagnosis or relapse. Patients were not receiving AML therapy at time of sampling. Blasts were isolated by Ficoll density centrifugation and were cultured in serum-free insulin transferrin selenium-positive (ITS+) medium (Life Technologies) containing 300 ng/mL stem cell factor (SCF) and 10 ng/mL interleukin 3 (IL3; R and D Systems, Abingdon, United Kingdom) and antibiotics. Blast purity ranged from 80% to 95%, as assessed by expression of CD34. Normal myeloblasts were isolated from cord blood or adult mobilized peripheral blood. Briefly, CD34^+ cells were indirectly selected from the mononuclear cell preparations using antibody-coated magnetic beads (Miltenyi Biotec, United Kingdom).
as §2, with “1982). The ingestion of three or more yeasts was taken as a positive result. In normal cord blood or adult bone marrow myeloblasts, loss of CD34 was taken as a marker of differentiation. Isotype-matched controls were used and all antibodies were from DAKO (Cambridge, United Kingdom).” for “1982).”

EGFP-tagged mouse PKC-δ = EGFP-tagged mouse PKC-δ (Mus musculus, UniProt P28867); details: KG1a
Chain of EGFP-tagged mouse PKC-δ (P28867 whole entry): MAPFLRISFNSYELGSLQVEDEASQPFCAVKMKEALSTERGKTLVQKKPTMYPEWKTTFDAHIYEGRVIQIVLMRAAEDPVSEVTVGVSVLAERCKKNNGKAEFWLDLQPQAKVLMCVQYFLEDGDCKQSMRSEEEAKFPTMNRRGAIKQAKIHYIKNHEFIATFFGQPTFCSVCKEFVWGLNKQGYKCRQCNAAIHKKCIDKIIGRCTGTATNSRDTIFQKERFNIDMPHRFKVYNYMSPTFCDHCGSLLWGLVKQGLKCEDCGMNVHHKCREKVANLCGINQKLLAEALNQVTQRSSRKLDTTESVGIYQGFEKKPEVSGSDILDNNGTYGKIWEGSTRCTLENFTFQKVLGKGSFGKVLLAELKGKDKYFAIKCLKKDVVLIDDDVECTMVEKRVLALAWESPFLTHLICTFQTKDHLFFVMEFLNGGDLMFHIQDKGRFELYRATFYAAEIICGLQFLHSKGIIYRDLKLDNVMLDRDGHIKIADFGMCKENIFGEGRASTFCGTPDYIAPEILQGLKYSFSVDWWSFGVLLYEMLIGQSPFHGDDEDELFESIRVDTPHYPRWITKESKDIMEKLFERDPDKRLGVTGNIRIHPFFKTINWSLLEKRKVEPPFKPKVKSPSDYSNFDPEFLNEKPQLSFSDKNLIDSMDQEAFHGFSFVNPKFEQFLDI
Procedure: KG1a cells were transfected with PKC-δ-EGFP or pEGFP-N1 (vector control). At 24 hours after transfection, cells were treated with 0, 0.2, 2 and 20 μM PEP005 and cytospins prepared after 15 minutes. Slides were fixed with 2% v/v paraformaldehyde in PBS for 20 minutes, rinsed briefly in PBS and mounted in Vectashield containing DAPI (4.6 diamidino-2-phenylindole; Vector Laboratories, Burlingame, Calif.). Slides were examined using a Leica Fluorescence microscope (Leica, Heidelberg, Germany) fitted with ×60 oil immersion objective. Images were captured using a Hamanatsu C4742-95 camera (Grafter Imaging, Austin, Tex.) and analyzed using OpenLab 3.1 software (Improvision, Coventry, United Kingdom).

Normal CD34+ myeloblasts [1] = test: Apoptosis / cytotoxicity in normal CD34+ myeloblasts; assay type: cell-based, human
Procedure: as §1
(§4) To determine the effects of ingenol-3-angelate (PEP005), cells were incubated for up to 5 days with medium alone or PEP005 at a range of concentrations from 0.2 nM to 20 μM. […] Apoptosis and differentiation were assessed after 1 to 5 days.
Cell differentiation was determined by staining of cells with anti-CD11b antibody as a general early marker of myeloid differentiation. In studies with HL60 cells, PEP005-treated and 20 nM phorbol myristate (PMA)-treated (Sigma Aldrich) cells were also assessed for their ability to phagocytose complement-coated yeast, a marker of a fully differentiated myeloid cell, as previously described (Toksoz et al, Leukemia Res 6:491-498, 1982). […]

PKC-δ = target: T1, PKC-δ (Homo sapiens, UniProt Q05655); test: PKC-δ activation by translocation (cell fractionation, Western blotting) in HL60 cells; assay type: cell-based; details: 10 minutes
T1 construct: endogenous in cells; host or cells: HL60
T1 sequence (Q05655 whole entry): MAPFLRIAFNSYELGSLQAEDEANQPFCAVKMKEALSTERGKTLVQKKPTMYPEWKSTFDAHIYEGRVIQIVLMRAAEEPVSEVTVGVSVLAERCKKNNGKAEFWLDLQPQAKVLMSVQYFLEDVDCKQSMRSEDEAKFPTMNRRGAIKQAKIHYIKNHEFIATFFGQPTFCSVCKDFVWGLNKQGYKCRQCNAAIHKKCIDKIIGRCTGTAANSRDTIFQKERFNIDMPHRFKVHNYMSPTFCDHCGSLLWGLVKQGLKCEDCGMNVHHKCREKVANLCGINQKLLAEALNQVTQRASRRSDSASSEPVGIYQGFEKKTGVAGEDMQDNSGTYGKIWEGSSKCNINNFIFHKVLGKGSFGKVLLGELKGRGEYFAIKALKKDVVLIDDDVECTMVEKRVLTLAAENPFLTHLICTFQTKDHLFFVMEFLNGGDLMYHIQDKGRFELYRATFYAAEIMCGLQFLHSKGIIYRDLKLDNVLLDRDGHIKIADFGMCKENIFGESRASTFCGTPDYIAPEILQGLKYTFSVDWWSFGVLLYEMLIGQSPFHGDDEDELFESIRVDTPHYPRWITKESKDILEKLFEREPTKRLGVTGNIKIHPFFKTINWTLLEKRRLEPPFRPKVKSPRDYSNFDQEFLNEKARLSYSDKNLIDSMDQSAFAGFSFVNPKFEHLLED
Procedure: PKC translocates from the soluble to the particulate fraction of cells when activated and this method was used to assess activation of PKC-δ by PEP005 and PMA. Briefly, cells were incubated for 10 minutes in medium alone or 20 nM PEP005 or 20 nM PMA, washed twice in phosphate buffered saline (PBS) and then lysed by homogenization in hypotonic lysis buffer in the absence of detergent. Lysis was checked using trypan blue uptake. Nuclei were isolated by centrifugation at 1000 g for 10 minutes. Centrifugation at 100,000 g for 45 minutes at 4° C. was used to isolate the cytosol (supernatant) and cell membrane (pellet) fractions. All were taken up in SDS sample buffer and analyzed for PKC-δ by Western blotting.

Normal CD34+ myeloblasts [2] = test: Differentiation of normal CD34+ myeloblasts (loss of CD34, morphology); assay type: cell-based, human; details: doses of 20 nM to 2.0 μM PEP005
Procedure: as §1, §2

caspase-3 = test: Caspase-3 phosphorylation in 32PO4-labeled HL60 cells; assay type: cell-based; details: 20 nM PEP005
Procedure: To determine if PEP005 induced caspase-3 phosphorylation, HL60 cells were incubated with 1.5×10^7 Bq/mL ^32PO4 (Amersham Pharmacia) in phosphate-free medium for 3 hours prior to addition of 20 nM PEP005 or PEP005 and 5 μM rottlerin (Calbiochem, Nottingham, United Kingdom). Cells were then lysed and caspase-3 was immunoprecipitated with an anti-caspase-3 antibody (BD Pharmingen, Oxford, United Kingdom) or an irrelevant isotype-matched control antibody (DAKO) and the immunoprecipitate was isolated using an anti-mouse immunoglobulin G (IgG) antibody (DAKO) and protein G-coated magnetic beads (microbeads; Miltenyi Biotech). The isolate was taken up in SDS sample buffer and run on a 10% w/v SDS-polyacrylamide gel electrophoresis (PAGE) gel and the labeled proteins were visualized using a phosphorimager.

primary AML blasts = test: Apoptosis in primary AML blasts from patient bone marrow; assay type: cell-based, human
Procedure: as §3, §4, §2

SMILES: C/C=C(/C)C(=O)O[C@H]1C(C)=C[C@]23C(=O)[C@@H](C=C(CO)[C@@H](O)[C@]12O)[C@H]1[C@@H](C[C@H]3C)C1(C)C [PEP005, ingenol-3-angelate]
- PEP005 concentration with optimal effect, CD11b expression (NB4): 20 nM
- predominant response (kinetic study) (U937): expressed CD11b as the predominant response before entering apoptosis
- synergy with ATRA in CD11b differentiation response (U937; 10 nM ATRA and 20 nM PEP005 in combination, 5 days): able to synergize with ATRA
- PEP005 concentration with optimal effect, CD11b expression (U937; treated 5 days): 20 nM
- time to translocation of EGFP-tagged PKC-δ to the nuclear region (EGFP-tagged mouse PKC-δ; 200 nM PEP005): ≤ 5 min
- translocation of EGFP-PKC-δ (EGFP-tagged mouse PKC-δ; from cytosol after PEP005 treatment): induced its translocation to the nucleus and perinuclear region
- induction of apoptosis (Normal CD34+ myeloblasts [1]; concentrations of PEP005 effective against cell lines and AML blast cells, cord blood and adult marrow myeloblasts): Induction of apoptosis was not seen
- cytotoxicity (Normal CD34+ myeloblasts [1]; even at 200 nM PEP005): cytotoxicity did not occur
- site of initial PKC-δ translocation (PKC-δ; 20 nM PEP005 or 20 nM PMA): to the nuclear and cell membranes
- activation of PKC-δ (translocation from cytosol to membrane fraction) (PKC-δ; 20 nM): induced activation of PKC-δ
- differentiation (loss of CD34, promyelocyte- and myelocyte-like morphologies) (Normal CD34+ myeloblasts [2]): induced to differentiate
- induction of caspase-3 phosphorylation (caspase-3): able to induce caspase-3 phosphorylation
- viable blast cells / morphology (primary AML blasts; after 48 hours of treatment with 20 nM PEP005): few viable AML blast cells remained
- patient AML blast samples induced to enter apoptosis (primary AML blasts; blasts of eight AML patients): seven of these were induced to enter apoptosis
- lowest PEP005 concentration inducing apoptosis (primary AML blasts; seven responsive AML samples): 2 nM
